The source of these data is patent US9981956B2, “Small molecule inhibitors of fibrosis” (THE CALIFORNIA INSTITUTE FOR BIOMEDICAL RESEARCH, priority 2013, dated 2018).

The target in data set [1] is T1, Cyp3A4 (Homo sapiens, UniProt P08684). Put plainly: Cyp reversible inhibition assay (human liver microsomes). How it is done: The purpose of this assay was to determine reversible inhibition of Cyp enzyme with a given compound using a substrate probe turnover as the surrogate for inhibition. This was done with human liver microsomes rather an isolated enzyme to account for metabolites of parent drug leading to a potential drug-drug interaction through Cyp inhibition. The substrate turnover (for example conversion of midazolam to hydroxyl midazolam) was monitored by LCMSMS (Q1/Q2=342.2/203.2). Test compounds were tested in a 7-point dose response curve starting from 50 μM to 50 nM (˜3-fold dilution series).
T1 sequence (P08684 whole entry): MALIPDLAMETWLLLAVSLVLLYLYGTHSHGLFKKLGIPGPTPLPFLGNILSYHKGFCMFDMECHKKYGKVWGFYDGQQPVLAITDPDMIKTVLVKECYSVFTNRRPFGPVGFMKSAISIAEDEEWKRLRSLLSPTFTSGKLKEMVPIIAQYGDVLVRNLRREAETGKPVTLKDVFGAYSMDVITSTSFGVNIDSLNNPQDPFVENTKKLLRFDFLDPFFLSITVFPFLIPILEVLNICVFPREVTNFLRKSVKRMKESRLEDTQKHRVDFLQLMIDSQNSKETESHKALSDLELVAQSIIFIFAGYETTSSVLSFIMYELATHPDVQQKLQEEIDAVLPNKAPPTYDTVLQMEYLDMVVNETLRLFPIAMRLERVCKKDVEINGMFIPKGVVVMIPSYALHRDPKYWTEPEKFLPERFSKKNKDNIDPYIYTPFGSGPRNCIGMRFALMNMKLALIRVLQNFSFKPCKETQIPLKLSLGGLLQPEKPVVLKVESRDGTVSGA
The detailed protocol was as follows: • Prepared test compounds and standard inhibitors working solution (100×) • Pulled microsomes out of the −80° C. freezer to thaw on ice, labeled with the date and put back to freezer immediately after using. • Added 20 μL of the substrate solutions to corresponding wells. • Added 20 μL PB to Blank wells. • Added 2 μL of the test compounds and positive control working solution to corresponding wells. • Added 2 μL MeOH to No Inhibitor wells and Blank wells. • Prepared HLM working solution. • Added 158 μL of the HLM working solution to all wells of incubation plate. • Pre-warmed the plate for about 10 min at 37° C. water bath. • Prepared NADPH cofactor solution. • Added 20 μL NADPH cofactor to all incubation wells. • Mixed and incubated for 10 minutes at 37° C. water bath. • At the time point, terminated the reaction by adding 400 μL cold stop solution (200 ng/mL Tolbutamide in ACN). • Centrifuged the samples at 4000 rpm for 20 minutes to precipitate protein. • Transferred 200 μL supernatant to 200 μL HPLC water and shook for 10 min. • Analyzed samples by LC/MS/MS.

The target in the next data set is T2, PXR (Homo sapiens, UniProt O75469).
T2 construct: expressed in transfected cells; host or cells: DPX2 cells
T2 sequence (O75469 1-434): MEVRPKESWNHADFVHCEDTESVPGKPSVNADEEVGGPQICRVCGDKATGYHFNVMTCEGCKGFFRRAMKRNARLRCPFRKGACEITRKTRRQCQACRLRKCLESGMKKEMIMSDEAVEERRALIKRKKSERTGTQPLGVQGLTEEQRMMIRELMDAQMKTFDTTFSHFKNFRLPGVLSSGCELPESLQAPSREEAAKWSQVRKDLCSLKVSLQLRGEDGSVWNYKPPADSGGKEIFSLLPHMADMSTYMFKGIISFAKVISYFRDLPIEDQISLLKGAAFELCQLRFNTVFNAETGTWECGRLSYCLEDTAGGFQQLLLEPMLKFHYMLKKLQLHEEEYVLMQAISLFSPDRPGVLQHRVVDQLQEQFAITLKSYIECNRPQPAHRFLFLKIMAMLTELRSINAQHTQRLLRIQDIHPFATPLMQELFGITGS
Put plainly: PXR (Cyp 3A4) activation assay in DPX2 cells. The class given is cell-based. As to conditions: compounds tested at 10, 1 and 0.1 μM, read-out: PXR activation (fold induction compared to Rifampicin). The procedure: CYP3A4 metabolism was evaluated by using P450-Glo™ CYP3A4 Assay with Luciferin-IPA as the substrate of CYP3A4 and represented as RLU (Relative Luminescence Units). PXR activation was evaluated by using a luciferase detection reagent, ONE-Glo™ and represented as RLU. The luminescence light intensity was directly proportional to the extent of PXR activation and accompanying gene transcription in the DPX2 cells. Compounds were tested at 10, 1, and 0.1 μM in the assay. Fold of induction=(RLU/RFU of compound treated sample)/(RLU/RFU of vehicle treated sample), RFU was the signal of cell viability. RLU was the signal of CYP3A metabolism and PXR activation. 0.1% DMSO was used as vehicle. Cell viability was detected by using CellTiter-Fluor™ and represented as RFU (Relative Fluorescence Units).
Activation potency was defined as negative, weak, moderate and strong. Negative, weak, moderate and strong activators are those that give <15%, <40%, <69% and >70%, respectively, of the response produced by 10 μM RIF at 10 μM.

For data set [2], the target named is T1, Cyp3A4. Description: Cyp time-dependent inhibition (TDI) assay (human liver microsomes). In kind it is in vitro ADME. Also noted: The TDI assay was generally performed in liver microsomes; from tissue; host or cells: human liver microsomes. The settings on record: for IC50: human liver microsomes; for TDI ratio: (−) NADPH/(+) NADPH: IC50 shift, >1.5-fold considered positive for TDI. The procedure:
The data from this assay was used in conjunction to the reversible inhibition assay. […] Then both incubation sets were diluted with fresh assay buffer containing NADPH Cyp specific substrates (midazolam for Cyp3A4) and inhibition of midazolam hydroxylation was measured by LC-MS/MS (Q1/Q2=m/z 342.2/203.2).
(In general: Liver microsomes are vesicles of endoplasmic reticulum, rich in cytochrome P450 enzymes.)

The mark [3] stands for this setting: Cyp 3A4 midazolam LCMS IC50, human liver microsomes, substrate midazolam.
Where [4] appears, read: Cyp 3A4 testosterone LCMS IC50, human liver microsomes, substrate testosterone.
Where [5] appears, read: 20 min pre-incubation with NADPH, read-out: 3A4-Midazolam IC50 (+) NADPH.
Setting [6] is: 20 min pre-incubation without NADPH, read-out: 3A4-Midazolam IC50 (−) NADPH.

Molecules are shown by their SMILES. Some results are limits rather than exact numbers.

As to `CCC(C)n1ncn(-c2ccc(N3CCN(c4ccc(OC[C@@H]5CO[C@@](Cn6nccn6)(c6ccc(Cl)cc6Cl)O5)cc4)CC3)cc2)c1=O` (stereo partly drawn) [Compound 15], the half-maximal inhibitory concentration (IC50) was more than 50 µM against Cyp3A4 [1] (setting [3]), more than 50 µM against Cyp3A4 [1] (setting [4]), 41 µM at Cyp3A4 [2] (setting [5]) and more than 50 µM at Cyp3A4 [2] (setting [6]). On PXR, the fold induction was approximately 1. Moreover, the “TDI ratio: (−) NADPH/(+) NADPH” value on Cyp3A4 [2] is ~1.2 (no TDI).
Take `CCC(C)n1ncn(-c2ccc(N3CCN(c4ccc(OC[C@@H]5CO[C@@](Cc6ccnnc6)(c6ccc(Cl)cc6Cl)O5)cc4)CC3)cc2)c1=O` (stereo partly drawn) [Compound 22]: the half-inhibitory concentration (IC50) on Cyp3A4 [1] (setting [3]), against Cyp3A4 [1] (setting [4]), at Cyp3A4 [2] (setting [5]) and at Cyp3A4 [2] (setting [6]) was more than 50 µM in each case. Moreover, the fold induction at PXR is approximately 1.1. Besides, on Cyp3A4 [2], the “TDI ratio: (−) NADPH/(+) NADPH” value was ~1 (no TDI).
On to `CCC(C)n1ncn(-c2ccc(N3CCN(c4ccc(OC[C@@H]5CO[C@@](Cn6nccn6)(c6ccccc6)O5)cc4)CC3)cc2)c1=O` (stereo partly drawn) [Compound 42], for which the IC50 against Cyp3A4 [1] (setting [3]), against Cyp3A4 [1] (setting [4]), at Cyp3A4 [2] (setting [5]) and at Cyp3A4 [2] (setting [6]) was more than 50 µM throughout. In addition, at PXR, the fold induction was approximately 1.5. For the same compound, the “TDI ratio: (−) NADPH/(+) NADPH” value at Cyp3A4 [2] is recorded as ~1 (no TDI).

A word on the IC50: it is the point on the concentration scale where inhibition reaches its midpoint.
